Tests used:
Assay in all cases: SelectScreen kinase assay
Assay type in all cases: biochemical
MSSK1_h = target: T1, MSSK1_h (Homo sapiens, UniProt Q9UPE1); conditions: KM ATP, read-out: % control
T1 construct: purchased Life Technologies (Invitrogen) SelectScreen, Z'-LYTE / Adapta
Method in brief: (§1)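 Each enzyme is assayed by Z'-Lyte or Adapta with the compound at a constant 3 µM. ATP is used at that enzyme's KM or at 10 or 100 µM. Activity is expressed relative to DMSO-only controls.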

Hgk_h = target: T2, Hgk_h (Homo sapiens, UniProt O95819); conditions: KM ATP, read-out: % control
T2 construct: purchased Life Technologies (Invitrogen) SelectScreen, Z'-LYTE / Adapta
T2 sequence (O95819 whole entry): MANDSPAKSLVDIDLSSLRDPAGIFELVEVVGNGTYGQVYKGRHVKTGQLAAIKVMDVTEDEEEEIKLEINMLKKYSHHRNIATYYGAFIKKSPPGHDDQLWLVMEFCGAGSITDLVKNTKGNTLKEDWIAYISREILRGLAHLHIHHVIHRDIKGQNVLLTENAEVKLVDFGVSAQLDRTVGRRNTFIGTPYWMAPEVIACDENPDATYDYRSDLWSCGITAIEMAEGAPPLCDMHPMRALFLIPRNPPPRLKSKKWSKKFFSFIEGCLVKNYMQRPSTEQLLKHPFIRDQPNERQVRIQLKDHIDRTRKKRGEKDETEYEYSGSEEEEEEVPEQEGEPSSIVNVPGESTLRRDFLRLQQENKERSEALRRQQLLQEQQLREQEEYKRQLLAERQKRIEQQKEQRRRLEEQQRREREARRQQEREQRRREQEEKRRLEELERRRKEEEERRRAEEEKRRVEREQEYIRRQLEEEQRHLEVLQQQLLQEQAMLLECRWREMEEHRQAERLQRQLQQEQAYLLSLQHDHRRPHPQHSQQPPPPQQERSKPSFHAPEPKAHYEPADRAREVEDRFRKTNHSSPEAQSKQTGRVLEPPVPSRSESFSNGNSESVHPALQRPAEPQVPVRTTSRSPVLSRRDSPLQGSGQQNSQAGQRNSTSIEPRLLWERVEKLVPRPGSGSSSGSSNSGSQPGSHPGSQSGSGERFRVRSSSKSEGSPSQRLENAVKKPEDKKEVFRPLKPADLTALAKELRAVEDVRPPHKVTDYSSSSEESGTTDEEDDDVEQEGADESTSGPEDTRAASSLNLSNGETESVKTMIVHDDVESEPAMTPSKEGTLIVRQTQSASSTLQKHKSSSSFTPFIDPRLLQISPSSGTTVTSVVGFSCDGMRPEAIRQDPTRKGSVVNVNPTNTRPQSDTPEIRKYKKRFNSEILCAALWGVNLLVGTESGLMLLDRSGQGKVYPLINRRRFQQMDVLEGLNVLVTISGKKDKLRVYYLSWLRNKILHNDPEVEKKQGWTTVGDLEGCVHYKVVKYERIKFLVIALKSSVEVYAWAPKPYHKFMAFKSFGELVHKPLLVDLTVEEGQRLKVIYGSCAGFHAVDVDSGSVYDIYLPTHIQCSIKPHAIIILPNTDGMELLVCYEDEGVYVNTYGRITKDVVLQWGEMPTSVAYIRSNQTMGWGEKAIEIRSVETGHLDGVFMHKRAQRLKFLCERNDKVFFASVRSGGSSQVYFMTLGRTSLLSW
Method in brief: as §1

PDGFR-alpha_V561D_h = target: T3, PDGFR-alpha_V561D_h (Homo sapiens, UniProt P16234, V561D); conditions: KM ATP, read-out: % control
T3 construct: purchased Life Technologies (Invitrogen) SelectScreen, Z'-LYTE / Adapta
T3 sequence (P16234 24-1089 V561D): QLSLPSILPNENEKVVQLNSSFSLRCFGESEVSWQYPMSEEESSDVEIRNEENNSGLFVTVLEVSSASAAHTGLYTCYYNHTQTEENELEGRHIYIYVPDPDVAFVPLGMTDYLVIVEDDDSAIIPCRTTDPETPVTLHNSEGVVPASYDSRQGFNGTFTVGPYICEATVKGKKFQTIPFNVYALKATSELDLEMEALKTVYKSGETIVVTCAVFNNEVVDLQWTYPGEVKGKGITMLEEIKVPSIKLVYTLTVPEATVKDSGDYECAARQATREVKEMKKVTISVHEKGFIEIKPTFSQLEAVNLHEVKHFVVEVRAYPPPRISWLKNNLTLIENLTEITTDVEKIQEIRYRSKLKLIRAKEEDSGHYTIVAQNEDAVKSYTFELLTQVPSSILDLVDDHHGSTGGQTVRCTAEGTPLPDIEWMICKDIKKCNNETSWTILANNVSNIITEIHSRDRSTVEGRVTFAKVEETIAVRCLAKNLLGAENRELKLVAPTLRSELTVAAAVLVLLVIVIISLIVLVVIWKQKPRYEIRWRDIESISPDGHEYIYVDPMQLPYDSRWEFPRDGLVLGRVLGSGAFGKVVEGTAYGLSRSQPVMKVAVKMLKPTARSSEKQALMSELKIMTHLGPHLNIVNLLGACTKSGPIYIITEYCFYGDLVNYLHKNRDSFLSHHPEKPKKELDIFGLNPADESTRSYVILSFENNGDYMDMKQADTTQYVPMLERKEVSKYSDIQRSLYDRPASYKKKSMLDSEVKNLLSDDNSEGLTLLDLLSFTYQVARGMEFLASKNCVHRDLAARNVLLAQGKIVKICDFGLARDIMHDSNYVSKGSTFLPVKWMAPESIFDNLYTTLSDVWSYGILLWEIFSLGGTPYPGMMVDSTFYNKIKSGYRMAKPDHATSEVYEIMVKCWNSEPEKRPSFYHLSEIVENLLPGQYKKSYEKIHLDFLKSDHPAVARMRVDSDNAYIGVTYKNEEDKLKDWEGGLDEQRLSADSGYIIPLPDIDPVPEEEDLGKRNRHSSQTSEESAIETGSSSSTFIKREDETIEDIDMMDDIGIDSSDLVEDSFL
Method in brief: as §1

IRAK4_h = target: T4, IRAK4_h (Homo sapiens, UniProt Q9NWZ3); conditions: KM ATP, read-out: % control
T4 construct: purchased Life Technologies (Invitrogen) SelectScreen, Z'-LYTE / Adapta
Method in brief: as §1

PAK7_h = target: T5, PAK7_h (Homo sapiens, UniProt Q9P286); conditions: KM ATP, read-out: % control
T5 construct: purchased Life Technologies (Invitrogen) SelectScreen, Z'-LYTE / Adapta
Method in brief: as §1

GSK3-alpha_h = target: T6, GSK3-alpha_h (Homo sapiens, UniProt P49840); conditions: KM ATP, read-out: % control
T6 construct: purchased Life Technologies (Invitrogen) SelectScreen, Z'-LYTE / Adapta
T6 sequence (P49840 whole entry): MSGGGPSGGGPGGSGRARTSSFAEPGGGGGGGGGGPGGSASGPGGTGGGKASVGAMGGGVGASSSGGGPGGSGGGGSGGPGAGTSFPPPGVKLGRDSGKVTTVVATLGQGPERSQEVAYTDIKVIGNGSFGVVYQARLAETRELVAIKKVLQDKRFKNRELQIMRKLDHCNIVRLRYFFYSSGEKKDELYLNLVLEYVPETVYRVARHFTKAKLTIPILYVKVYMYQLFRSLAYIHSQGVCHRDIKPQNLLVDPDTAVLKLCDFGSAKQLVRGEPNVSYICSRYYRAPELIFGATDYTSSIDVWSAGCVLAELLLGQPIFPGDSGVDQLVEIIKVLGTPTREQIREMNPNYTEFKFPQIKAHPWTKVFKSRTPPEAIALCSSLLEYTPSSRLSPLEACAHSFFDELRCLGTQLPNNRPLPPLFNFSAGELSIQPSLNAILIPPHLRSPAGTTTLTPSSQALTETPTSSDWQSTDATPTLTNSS
Method in brief: as §1

SRPK1_h = target: T7, SRPK1_h (Homo sapiens, UniProt Q96SB4); conditions: KM ATP, read-out: % control
T7 construct: purchased Life Technologies (Invitrogen) SelectScreen, Z'-LYTE / Adapta
Method in brief: as §1

c-RAF_h = target: T8, c-RAF_h (Homo sapiens, UniProt P04049); conditions: 100 µM ATP, read-out: % control
T8 construct: purchased Life Technologies (Invitrogen) SelectScreen, Z'-LYTE / Adapta
Method in brief: as §1

PKC-epsilon_h = target: T9, PKC-epsilon_h (Homo sapiens, UniProt Q02156); conditions: KM ATP, read-out: % control
T9 construct: purchased Life Technologies (Invitrogen) SelectScreen, Z'-LYTE / Adapta
Method in brief: as §1

PAK4_h = target: T10, PAK4_h (Homo sapiens, UniProt O96013); conditions: KM ATP, read-out: % control
T10 construct: purchased Life Technologies (Invitrogen) SelectScreen, Z'-LYTE / Adapta
Method in brief: as §1

JAK2-JH1-JH2_h = target: T11, JAK2-JH1-JH2_h (Homo sapiens, UniProt O60674); conditions: KM ATP, read-out: % control
T11 construct: JAK2-JH1-JH2_h; purchased Life Technologies (Invitrogen) SelectScreen, Z'-LYTE / Adapta
Method in brief: as §1

Rsk4_h = target: T12, Rsk4_h (Homo sapiens, UniProt Q9UK32); conditions: KM ATP, read-out: % control
T12 construct: purchased Life Technologies (Invitrogen) SelectScreen, Z'-LYTE / Adapta
Method in brief: as §1

MRCK-beta_h = target: T13, MRCK-beta_h (Homo sapiens, UniProt Q9Y5S2); conditions: KM ATP, read-out: % control
T13 construct: purchased Life Technologies (Invitrogen) SelectScreen, Z'-LYTE / Adapta
Method in brief: as §1

MST1_h = target: T14, MST1_h (Homo sapiens, UniProt Q13043); conditions: KM ATP, read-out: % control
T14 construct: purchased Life Technologies (Invitrogen) SelectScreen, Z'-LYTE / Adapta
Method in brief: as §1

HIPK2_h = target: T15, HIPK2_h (Homo sapiens, UniProt Q9H2X6); conditions: KM ATP, read-out: % control
T15 construct: purchased Life Technologies (Invitrogen) SelectScreen, Z'-LYTE / Adapta
Method in brief: as §1

PDGFR-alpha_T674I_h = target: T16, PDGFR-alpha_T674I_h (Homo sapiens, UniProt P16234, T674I); conditions: KM ATP, read-out: % control
T16 construct: purchased Life Technologies (Invitrogen) SelectScreen, Z'-LYTE / Adapta
T16 sequence (P16234 24-1089 T674I): as the sequence (P16234 24-1089 V561D) above, with D538V, T651I counted along it
Method in brief: as §1

Pim-2_h = target: T17, Pim-2_h (Homo sapiens, UniProt Q9P1W9); conditions: KM ATP, read-out: % control
T17 construct: purchased Life Technologies (Invitrogen) SelectScreen, Z'-LYTE / Adapta
Method in brief: as §1

EphA5_h = target: T18, EphA5_h (Homo sapiens, UniProt P54756); conditions: KM ATP, read-out: % control
T18 construct: purchased Life Technologies (Invitrogen) SelectScreen, Z'-LYTE / Adapta
Method in brief: as §1

PRAK_h = target: T19, PRAK_h (Homo sapiens, UniProt Q8IW41); conditions: KM ATP, read-out: % control
T19 construct: purchased Life Technologies (Invitrogen) SelectScreen, Z'-LYTE / Adapta
Method in brief: as §1

STK25_h = target: T20, STK25_h (Homo sapiens, UniProt O00506); conditions: KM ATP, read-out: % control
T20 construct: purchased Life Technologies (Invitrogen) SelectScreen, Z'-LYTE / Adapta
Method in brief: as §1

PDGFR-alpha_D842V_h = target: T21, PDGFR-alpha_D842V_h (Homo sapiens, UniProt P16234, D842V); conditions: KM ATP, read-out: % control
T21 construct: purchased Life Technologies (Invitrogen) SelectScreen, Z'-LYTE / Adapta
T21 sequence (P16234 24-1089 D842V): as the sequence (P16234 24-1089 V561D) above, with D538V, D819V counted along it
Method in brief: as §1

Plk3_h = target: T22, Plk3_h (Homo sapiens, UniProt Q9H4B4); conditions: KM ATP, read-out: % control
T22 construct: purchased Life Technologies (Invitrogen) SelectScreen, Z'-LYTE / Adapta
Method in brief: as §1

PKB-beta_h = target: T23, PKB-beta_h (Homo sapiens, UniProt P31751); conditions: KM ATP, read-out: % control
T23 construct: purchased Life Technologies (Invitrogen) SelectScreen, Z'-LYTE / Adapta
T23 sequence (P31751 whole entry): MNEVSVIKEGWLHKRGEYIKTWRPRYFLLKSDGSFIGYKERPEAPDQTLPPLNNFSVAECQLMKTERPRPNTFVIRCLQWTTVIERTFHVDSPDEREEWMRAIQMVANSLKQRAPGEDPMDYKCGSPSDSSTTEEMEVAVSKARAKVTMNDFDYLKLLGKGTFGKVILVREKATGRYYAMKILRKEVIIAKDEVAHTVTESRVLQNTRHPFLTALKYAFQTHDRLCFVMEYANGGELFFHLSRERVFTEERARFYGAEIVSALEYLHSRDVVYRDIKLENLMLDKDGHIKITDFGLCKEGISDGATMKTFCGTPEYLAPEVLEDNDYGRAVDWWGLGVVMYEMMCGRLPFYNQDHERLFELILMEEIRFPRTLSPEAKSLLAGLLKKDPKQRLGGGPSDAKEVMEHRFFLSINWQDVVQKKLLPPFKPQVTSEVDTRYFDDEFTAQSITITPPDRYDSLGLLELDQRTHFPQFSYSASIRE
Method in brief: as §1

MSK1_h = target: T24, MSK1_h (Homo sapiens, UniProt O75582); conditions: KM ATP, read-out: % control
T24 construct: purchased Life Technologies (Invitrogen) SelectScreen, Z'-LYTE / Adapta
Method in brief: as §1

Hck_h = target: T25, Hck_h (Homo sapiens, UniProt P08631); conditions: KM ATP, read-out: % control
T25 construct: purchased Life Technologies (Invitrogen) SelectScreen, Z'-LYTE / Adapta
Method in brief: as §1

EphB2_h = target: T26, EphB2_h (Homo sapiens, UniProt P29323); conditions: KM ATP, read-out: % control
T26 construct: purchased Life Technologies (Invitrogen) SelectScreen, Z'-LYTE / Adapta
Method in brief: as §1

Lck_h = target: T27, Lck_h (Homo sapiens, UniProt P06239); conditions: KM ATP, read-out: % control
T27 construct: purchased Life Technologies (Invitrogen) SelectScreen, Z'-LYTE / Adapta
Method in brief: as §1

PKA_h = target: T28, PKA_h (Homo sapiens, UniProt P17612); conditions: KM ATP, read-out: % control
T28 construct: purchased Life Technologies (Invitrogen) SelectScreen, Z'-LYTE / Adapta
Method in brief: as §1

TAO1_h = target: T29, TAO1_h (Homo sapiens, UniProt Q9UL54); conditions: KM ATP, read-out: % control
T29 construct: purchased Life Technologies (Invitrogen) SelectScreen, Z'-LYTE / Adapta
Method in brief: as §1

Fms_h = Fms_h (Homo sapiens, UniProt P07333)
Chain of Fms_h (P07333 20-972): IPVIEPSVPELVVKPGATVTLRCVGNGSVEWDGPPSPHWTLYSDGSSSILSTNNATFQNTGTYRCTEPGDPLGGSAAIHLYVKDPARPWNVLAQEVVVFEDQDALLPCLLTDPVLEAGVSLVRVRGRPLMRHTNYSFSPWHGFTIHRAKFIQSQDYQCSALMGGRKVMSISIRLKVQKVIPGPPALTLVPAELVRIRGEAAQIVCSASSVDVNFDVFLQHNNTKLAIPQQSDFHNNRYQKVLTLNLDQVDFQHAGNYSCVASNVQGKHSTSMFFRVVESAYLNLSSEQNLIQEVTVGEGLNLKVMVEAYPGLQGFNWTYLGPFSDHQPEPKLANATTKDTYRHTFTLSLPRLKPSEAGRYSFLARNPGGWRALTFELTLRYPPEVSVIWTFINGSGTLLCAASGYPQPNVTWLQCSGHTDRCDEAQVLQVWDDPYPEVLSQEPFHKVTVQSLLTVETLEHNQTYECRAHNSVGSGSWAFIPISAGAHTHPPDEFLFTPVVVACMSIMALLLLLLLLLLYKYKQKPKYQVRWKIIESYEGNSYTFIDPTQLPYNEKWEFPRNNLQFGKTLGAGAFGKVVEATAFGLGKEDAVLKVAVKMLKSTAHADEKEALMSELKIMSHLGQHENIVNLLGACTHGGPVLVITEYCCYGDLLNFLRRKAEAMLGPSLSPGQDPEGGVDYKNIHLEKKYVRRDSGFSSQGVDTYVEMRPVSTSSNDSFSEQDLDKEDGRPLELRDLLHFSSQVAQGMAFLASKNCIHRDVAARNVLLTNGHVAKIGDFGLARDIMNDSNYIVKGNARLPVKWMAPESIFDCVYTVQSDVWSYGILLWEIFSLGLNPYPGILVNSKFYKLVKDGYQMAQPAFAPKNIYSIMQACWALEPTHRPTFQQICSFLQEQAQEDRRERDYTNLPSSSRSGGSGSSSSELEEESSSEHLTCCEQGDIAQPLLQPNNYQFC
Method in brief: as §1

PrKX_h = target: T30, PrKX_h (Homo sapiens, UniProt P51817); conditions: KM ATP, read-out: % control
T30 construct: purchased Life Technologies (Invitrogen) SelectScreen, Z'-LYTE / Adapta
Method in brief: as §1

EphB4_h = target: T31, EphB4_h (Homo sapiens, UniProt P54760); conditions: KM ATP, read-out: % control
T31 construct: purchased Life Technologies (Invitrogen) SelectScreen, Z'-LYTE / Adapta
Method in brief: as §1

NEK9_h = target: T32, NEK9_h (Homo sapiens, UniProt Q8TD19); conditions: KM ATP, read-out: % control
T32 construct: purchased Life Technologies (Invitrogen) SelectScreen, Z'-LYTE / Adapta
Method in brief: as §1

T1 sequence (Q9UPE1 whole entry): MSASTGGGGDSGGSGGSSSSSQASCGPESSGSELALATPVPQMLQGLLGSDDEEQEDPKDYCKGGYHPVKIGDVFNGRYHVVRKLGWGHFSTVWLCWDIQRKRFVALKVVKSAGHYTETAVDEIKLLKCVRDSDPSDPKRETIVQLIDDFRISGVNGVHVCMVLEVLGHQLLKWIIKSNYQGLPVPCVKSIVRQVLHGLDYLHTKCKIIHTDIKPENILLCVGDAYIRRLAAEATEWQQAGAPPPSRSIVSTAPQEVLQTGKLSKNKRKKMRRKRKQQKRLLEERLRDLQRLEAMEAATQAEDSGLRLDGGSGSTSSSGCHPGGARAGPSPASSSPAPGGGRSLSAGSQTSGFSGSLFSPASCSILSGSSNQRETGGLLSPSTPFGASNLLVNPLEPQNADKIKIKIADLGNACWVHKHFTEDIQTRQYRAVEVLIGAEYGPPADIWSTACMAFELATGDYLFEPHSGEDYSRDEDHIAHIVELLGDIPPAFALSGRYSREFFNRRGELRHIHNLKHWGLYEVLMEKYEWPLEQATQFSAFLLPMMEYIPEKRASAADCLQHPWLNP

SMILES: c1cc(CC2CCOCC2)n2nc(Nc3ccc4c(NC5CCOCC5)n[nH]c4c3)nc2c1 [CC-509, [3-(2H-3,4,5,6-tetrahydropyran-4-ylamino)(1H-indazol-6-yl)][5-(2H-3,4,5,6-tetrahydropyran-4-ylmethyl)(2H-1,2,4-triazolo[1,5-a]pyridin-2-yl)]amine]
- remaining activity at 3 µM (MSSK1_h): 98%
- remaining activity at 3 µM (Hgk_h): 62%
- remaining activity at 3 µM (PDGFR-alpha_V561D_h): 0%
- remaining activity at 3 µM (IRAK4_h): 94%
- remaining activity at 3 µM (PAK7_h): 86%
- remaining activity at 3 µM (GSK3-alpha_h): 91%
- remaining activity at 3 µM (SRPK1_h): 98%
- remaining activity at 3 µM (c-RAF_h): 70%
- remaining activity at 3 µM (PKC-epsilon_h): 100%
- remaining activity at 3 µM (PAK4_h): 87%
- remaining activity at 3 µM (JAK2-JH1-JH2_h): 4%
- remaining activity at 3 µM (Rsk4_h): 32%
- remaining activity at 3 µM (MRCK-beta_h): 94%
- remaining activity at 3 µM (MST1_h): 65%
- remaining activity at 3 µM (HIPK2_h): 96%
- remaining activity at 3 µM (PDGFR-alpha_T674I_h): 80%
- remaining activity at 3 µM (Pim-2_h): 99%
- remaining activity at 3 µM (EphA5_h): 89%
- remaining activity at 3 µM (PRAK_h): 91%
- remaining activity at 3 µM (STK25_h): 97%
- remaining activity at 3 µM (PDGFR-alpha_D842V_h): 9%
- remaining activity at 3 µM (Plk3_h): 88%
- remaining activity at 3 µM (PKB-beta_h): 98%
- remaining activity at 3 µM (MSK1_h): 94%
- remaining activity at 3 µM (Hck_h): 71%
- remaining activity at 3 µM (EphB2_h): 75%
- remaining activity at 3 µM (Lck_h): 39%
- remaining activity at 3 µM (PKA_h): 93%
- remaining activity at 3 µM (TAO1_h): 96%
- remaining activity at 3 µM (Fms_h; 3 µM, KM ATP, read-out: % control): 2%
- IC50 (Fms_h; 10-point dose-response, commercial vendor): 8.61 nM
- remaining activity at 3 µM (PrKX_h): 95%
- remaining activity at 3 µM (EphB4_h): 87%
- remaining activity at 3 µM (NEK9_h): 95%
